ChEMBL document CHEMBL6087448, “Eradication of Therapy-Resistant Cancer Stem Cells by Novel Telmisartan Derivatives” (J Med Chem, 2025)
Calls of active or inactive are those of the source. The rule behind the calls is not given here.

How the values were obtained:
[1] = Cytotoxicity against human Docetaxel-resistant DU145 cell assessed as metabolic activity at 12.5 nM measured after 72 hrs by MTT assay relative to control; type: functional
MCF7 [2] = experiment: Inhibition of STAT5 phosphorylation in human MCF7 cells at 10 uM incubated for 72 hrs by Western blotting based immunoassay; type: cell-based
A2780/Taxol [3] = experiment: Inhibition of side population phenotype in human Paclitaxel-resistant A2780 cells expressing ABCB1 at 10 uM incubated for 90 mins by DCV staining based flow cytometric analysis; type: functional, cell-based
[4] = test system: Docetaxel-resistant DU145 cell; experiment: Enhancement of docetaxel-induced anti-metabolic activity against human Docetaxel-resistant DU145 cell assessed as reduction in metabolic activity at 10 uM measured after 72 hrs by MTT assay; type: functional, cell-based
[5] = Inhibition of side population phenotype in human K562-r cells at 10 uM incubated for 90 mins by DCV staining based flow cytometric analysis relative to control; type: functional; settings: K-562R
A549 [6] = experiment: Inhibition of STAT5 phosphorylation in human A549 cells at 10 uM incubated for 72 hrs by Western blotting based immunoassay; type: cell-based
K562-r [7] = experiment: Inhibition of STAT5 phosphorylation in human K562-r cells at 4 uM measured after 72 hrs by Western blotting based immunoassay; type: cell-based
K562-r [8] = experiment: Inhibition of STAT5 phosphorylation in human K562-r cells at 4 uM measured after 6 hrs in presence of imatinib by Western blotting based immunoassay; type: cell-based
[9] = test system: Paclitaxel-resistant IGROV-1 cell; experiment: Inhibition of STAT5 phosphorylation in human Paclitaxel-resistant IGROV-1 cells expressing ABCB1 at 10 uM incubated for 72 hrs by Western blotting based immunoassay
A549 [10] = experiment: Effect on STAT5 protein expression in human A549 cells at 10 uM incubated for 72 hrs by Western blotting based immunoassay; type: functional, cell-based
K-562R [11] = experiment: Effect on ABCB1 protein expression in human K562-r cells at 4 uM incubated for 72 hrs by Western blotting based immunoassay; type: functional, cell-based
[12] = test system: Docetaxel-resistant PC-3 cell; experiment: Enhancement of docetaxel-induced anti-metabolic activity against human Docetaxel-resistant PC-3 cell assessed as reduction in metabolic activity at 10 uM measured after 72 hrs by MTT assay; type: functional, cell-based
K-562R [13] = experiment: Cytotoxicity against human K562-r cells assessed as reduction in metabolic activity at 10 uM incubated for 72 hrs by MTT assay; type: functional, cell-based
[14] = Apparent permeability across basolateral to apical side in human Caco-2 cells at 10 uM by LC-MS/MS analysis
PBMC [15] = experiment: Effect on colony formation in human PBMC derived from healthy donors at 10 uM measured after 2 weeks in presence of imatinib by inverted microscopic analysis; type: functional, cell-based
A2780/Taxol [16] = experiment: Effect on STAT5 protein expression in human Paclitaxel-resistant A2780 cells expressing ABCB1 at 10 uM incubated for 72 hrs by Western blotting based immunoassay; type: functional, cell-based
A549 [17] = experiment: Inhibition of side population phenotype in human A549 cells expressing ABCC1 at 10 uM incubated for 90 mins by DCV staining based flow cytometric analysis; type: functional, cell-based
K562-r [18] = experiment: Effect on STAT5 phosphorylation in human K562-r cells at 4 uM measured after 6 hrs by Western blotting based immunoassay; type: cell-based
K-562R [19] = experiment: Inhibition of side population phenotype in human K562-r cells at 0.1 to 10 uM incubated for 90 mins by DCV staining based flow cytometric analysis; type: functional, cell-based; settings: dose 0.1-10 µM
[20] = test system: Docetaxel-resistant PC-3 cell; experiment: Inhibition of side population phenotype in human Docetaxel-resistant PC-3 cell expressing ABCB1 at 10 uM incubated for 90 mins by DCV staining based flow cytometric analysis; type: functional
A2780/Taxol [21] = experiment: Sensitization of paclitaxel-induced cytotoxicity against human Paclitaxel-resistant A2780 cells assessed as reduction in metabolic activity at 10 uM measured after 72 hrs by MTT assay; type: functional, cell-based
MCF7 [22] = experiment: Inhibition of side population phenotype in human MCF7 cells expressing ABCG2 at 10 uM incubated for 90 mins by DCV staining based flow cytometric analysis; type: functional, cell-based
[23] = Apparent permeability across apical to basolateral side in human Caco-2 cells at 10 uM by LC-MS/MS analysis
PBMC [24] = experiment: Effect on colony formation in human PBMC derived from healthy donors at 10 uM measured after 2 weeks by inverted microscopic analysis; type: functional, cell-based
K-562R [25] = experiment: Restoration of imatinib accumulation in human K562-r cells at 10 uM preincubated with compound for 1 hrs followed by imatinib addition and measured after 2 hrs by UHPLC-SIM-MS analysis; type: functional, cell-based; settings: time 3.0 hrs
COS-7 = experiment: Cytotoxicity against African green monkey COS-7 cells assessed as reduction in metabolic activity at 10 uM incubated for 72 hrs by MTT assay; type: toxicity, cell-based; settings: chlorocebus aethiops, cos-7, 72 h
PBMC [26] = experiment: Inhibition of colony formation in human PBMC derived from TKI naive CML patients assessed as reduction in number of colonies at 1 uM incubated for 14 days in presence of imatinib by inverted microscopic analysis; type: functional, cell-based; settings: time 14.0 day
MCF7 [27] = experiment: Effect on STAT5 protein expression in human MCF7 cells at 10 uM incubated for 72 hrs by Western blotting based immunoassay; type: functional, cell-based
[28] = test system: Paclitaxel-resistant A2780; experiment: Inhibition of STAT5 phosphorylation in human Paclitaxel-resistant A2780 cells expressing ABCB1 at 10 uM incubated for 72 hrs by Western blotting based immunoassay; type: cell-based
[29] = test system: Paclitaxel-resistant IGROV-1 cell; experiment: Enhancement of paclitaxel-induced anti-metabolic activity in human Paclitaxel-resistant IGROV-1 cells assessed as reduction in metabolic activity upto 300 nM measured after 72 hrs by MTT assay; type: functional, cell-based
[30] = test system: Paclitaxel-resistant IGROV-1 cell; experiment: Inhibition of side population phenotype in human Paclitaxel-resistant IGROV-1 cells expressing ABCB1 at 10 uM incubated for 90 mins by DCV staining based flow cytometric analysis; type: functional
[31] = test system: Docetaxel-resistant DU145 cell; experiment: Inhibition of side population phenotype in human Docetaxel-resistant DU145 cell expressing ABCB1 at 10 uM incubated for 90 mins by DCV staining based flow cytometric analysis; type: functional
A2780/Taxol [32] = experiment: Cytotoxicity against human Paclitaxel-resistant A2780 cells assessed as metabolic activity at 10 nM measured after 72 hrs by MTT assay relative to control; type: functional

`CC(=O)O[C@@]12CO[C@@H]1C[C@H](O)[C@@]1(C)C(=O)[C@H](O)C3=C(C)[C@@H](OC(=O)[C@H](O)[C@@H](NC(=O)OC(C)(C)C)c4ccccc4)C[C@@](O)([C@@H](OC(=O)c4ccccc4)[C@H]21)C3(C)C` [DOCETAXEL ANHYDROUS] showed an Activity [1] of over 80%.

In the case of `CCCc1nc2c(C)cc(-c3nc4ccccc4n3C)cc2n1Cc1ccc(-c2ccccc2C(=O)OC)cc1`, the inhibition (MCF7 [2]) is reported as “Active”, the inhibition (A2780/Taxol [3]) is reported as “Active” and the Activity [4] is reported as “Active”. For the same compound, the inhibition at 10 µM [5] was 100%, the inhibition (A549 [6]) was “Active” and the inhibition (K562-r [7]) was “Active; Lesser Effect Observed”. For the same compound, the inhibition (K562-r [8]) was “Active”, the inhibition [9] was “inactive” and the Activity (A549 [10]) was “inactive”. The Activity (K-562R [11]) was “inactive”, the Activity [12] was “Active; Marginal Activity Observed” and the Activity (K-562R [13]) was “inactive”. For the same compound, the Papp B→A at 10 µM [14] was 2 nm/s, the Activity (PBMC [15]) was “inactive” and the Activity (A2780/Taxol [16]) was “inactive”. The inhibition (A549 [17]) was “Active”, the Activity (K562-r [18]) was “inactive” and the inhibition (K-562R [19]) was “Active; Similar To Valspodar”. For the same compound, the inhibition [20] was “Active”, the Activity (A2780/Taxol [21]) was “Active” and the inhibition (MCF7 [22]) was “Active”. For the same compound, the Papp A→B at 10 µM [23] was 1 nm/s, the Activity (PBMC [24]) was “inactive” and the Activity (K-562R [25]) was “Active”. For the same compound, the Activity (COS-7) was “Non-toxic”, the inhibition (PBMC [26]) was “Active” and the Activity (MCF7 [27]) was “inactive”. The inhibition [28] was “Active”, the Activity [29] was “inactive” and the inhibition [30] was “Active”. The inhibition [31] was “Active”.

In the case of `CC(=O)O[C@H]1C(=O)[C@@]2(C)[C@H]([C@H](OC(=O)c3ccccc3)[C@]3(O)C[C@H](OC(=O)[C@H](O)[C@@H](NC(=O)c4ccccc4)c4ccccc4)C(C)=C1C3(C)C)[C@]1(OC(C)=O)CO[C@@H]1C[C@@H]2O` [PACLITAXEL], the Activity (A2780/Taxol [32]) is reported as over 80%.
